Results reported in ChEMBL document CHEMBL5537162, “Development of Antibacterial Peptides with Membrane Disruption and Folate Pathway Inhibitory Activities against Methicillin-Resistant Staphylococcus aureus” (J Med Chem, 2024).
Values after ≈ are worked out from the molar mass of the structure shown. Active and inactive are the calls of the source. The calls are words filed in the database; no cut-off is given here.

How the values were obtained:
[1] = system: Staphylococcus aureus; assay: Antibacterial activity against methicillin-resistant Staphylococcus aureus 19047 assessed as bacterial growth inhibition incubated for 24 hrs by CLSI based micro-broth dilution assay; format: functional
[2] = system: Staphylococcus aureus; assay: Antibacterial activity against methicillin-resistant Staphylococcus aureus 18567 assessed as bacterial growth inhibition incubated for 24 hrs by CLSI based micro-broth dilution assay; format: functional
[3] = system: Staphylococcus aureus; assay: Antibacterial activity against methicillin-resistant Staphylococcus aureus 19423 assessed as bacterial growth inhibition incubated for 24 hrs by CLSI based micro-broth dilution assay; format: functional
[4] = system: Staphylococcus aureus; assay: Antibacterial activity against methicillin-resistant Staphylococcus aureus 19498 assessed as bacterial growth inhibition incubated for 24 hrs by CLSI based micro-broth dilution assay; format: functional
[5] = system: Staphylococcus aureus; assay: Antibacterial activity against methicillin-resistant Staphylococcus aureus 18908 assessed as bacterial growth inhibition incubated for 24 hrs by CLSI based micro-broth dilution assay; format: functional
[6] = system: Staphylococcus aureus; assay: Antibacterial activity against Methicillin-resistant Staphylococcus aureus infected in ICR mouse skin infection model assessed as reduction in skin abscess volume; format: functional, organism-based
[7] = system: Staphylococcus aureus; assay: Antibacterial activity against methicillin-resistant Staphylococcus aureus 19167 assessed as bacterial growth inhibition incubated for 24 hrs by CLSI based micro-broth dilution assay; format: functional
[8] = system: Staphylococcus aureus; assay: Antibacterial activity against methicillin-resistant Staphylococcus aureus 18475 assessed as bacterial growth inhibition incubated for 24 hrs by CLSI based micro-broth dilution assay; format: functional
[9] = system: Staphylococcus aureus; assay: Antibacterial activity against methicillin-resistant Staphylococcus aureus 18878 assessed as bacterial growth inhibition incubated for 24 hrs by CLSI based micro-broth dilution assay; format: functional
[10] = system: Staphylococcus aureus; assay: Antibacterial activity against methicillin-resistant Staphylococcus aureus 18858 assessed as bacterial growth inhibition incubated for 24 hrs by CLSI based micro-broth dilution assay; format: functional
[11] = system: Staphylococcus aureus; assay: Antibacterial activity against methicillin-resistant Staphylococcus aureus 18466 assessed as bacterial growth inhibition incubated for 24 hrs by CLSI based micro-broth dilution assay; format: functional
[12] = (§1) Hemolytic activity in mouse RBC assessed as hemolysis incubated for 1 hrs by spectrophotometric analysis; format: toxicity, cell-based, Erythrocyte; conditions: mouse red blood cells (erythrocytes)
[13] = system: Erythrocyte; assay: as §1; format: toxicity, cell-based; conditions: erythrocyte, 1 h
[14] = Antiproliferative activity against HEK293T cells assessed as reduction in cell viability measured for 48 hrs by MTT assay; format: toxicity, cell-based, HEK-293T; conditions: human
[15] = system: Staphylococcus aureus; assay: Antibacterial activity against Methicillin-resistant Staphylococcus aureus infected in ICR mouse skin infection model assessed as reduction in inflammatory infiltration at 5 mg/kg, sc by H and E staining based microscopic analysis; format: functional, organism-based
[16] = system: Staphylococcus aureus; assay: Antibacterial activity against Methicillin-resistant Staphylococcus aureus infected in ICR mouse skin infection model assessed as reduction in bacterial content at 5 mg/kg, sc measured upto 10 days; format: functional, organism-based; conditions: time <= 10.0 day
[17] = Selectivity index, ratio of IC50 for antiproliferative activity against HEK293T cells assessed as reduction in cell viability to MIC for antibacterial activity against methicillin-resistant Staphylococcus aureus assessed as bacterial growth inhibition; format: toxicity, cell-based; conditions: human, read-out: Selectivity Index
[18] = Hemolytic activity in mouse RBC assessed as hemolysis at 320 uM incubated for 1 hrs by spectrophotometric analysis relative to control; format: toxicity, cell-based, Erythrocyte; conditions: mouse red blood cells (erythrocytes), read-out: %max
[19] = system: Staphylococcus aureus; assay: Antibacterial activity against methicillin-resistant Staphylococcus aureus assessed as bacterial growth inhibition incubated for 24 hrs by CLSI based micro-broth dilution assay; format: functional
[20] = system: HEK-293T; assay: Antiproliferative activity against HEK293T cells assessed as reduction in cell viability at 2.5 to 320 uM measured for 48 hrs by MTT assay relative to control; format: toxicity, cell-based; conditions: human, dose 2.5-320 µM

| Compound | MIC [1] [µM] | MIC [2] [µM] | MIC [3] [µM] | MIC [4] [µM] | MIC [5] [µM] | Activity [6] | MIC [7] [µM] | MIC [8] [µM] | MIC [9] [µM] | MIC [10] [µM] | MIC [11] [µM] | HC50 at 1 h [12] [µM] | HC10 [13] [µM] | IC50 at 48 h [14] [µM] | Activity [15] | Activity [16] | selectivity ratio [17] | hemolysis at 1 h, 320 µM [18] [%] | MIC [19] [µM] | Activity [20] [%] |
| --- | --- | --- | --- | --- | --- | --- | --- | --- | --- | --- | --- | --- | --- | --- | --- | --- | --- | --- | --- | --- |
| COc1cccc(OC)c1C(=O)N[C@@H]1C(=O)N2[C@@H]1SC(C)(C)[C@@H]2C(=O)O [METHICILLIN] | > 480 | > 480 | > 480 | > 480 | > 480 | Active | > 480 | > 480 | > 480 | > 480 | > 480 |  |  |  |  |  |  |  |  |  |
| Cc1onc(-c2ccccc2)c1C(=O)N[C@@H]1C(=O)N2[C@@H]1SC(C)(C)[C@@H]2C(=O)O [OXACILLIN] | > 480 | > 480 | > 480 | > 480 | > 480 |  | > 480 | > 480 | > 480 | > 480 | > 480 |  |  |  |  |  |  |  |  |  |
| CN[C@H](CC(C)C)C(=O)N[C@H]1C(=O)N[C@@H](CC(N)=O)C(=O)N[C@H]2C(=O)N[C@H]3C(=O)N[C@H](C(=O)N[C@H](C(=O)O)c4cc(O)cc(O)c4-c4cc3ccc4O)[C@H](O)c3ccc(c(Cl)c3)Oc3cc2cc(c3O[C@@H]2O[C@H](CO)[C@@H](O)[C@H](O)[C@H]2O[C@H]2C[C@](C)(N)[C@H](O)[C@H](C)O2)Oc2ccc(cc2Cl)[C@H]1O [VANCOMYCIN] | 1 (≈ 1.45 µg/mL) | 1 (≈ 1.45 µg/mL) | 1 (≈ 1.45 µg/mL) | 1 (≈ 1.45 µg/mL) | 1 (≈ 1.45 µg/mL) |  | 1 (≈ 1.45 µg/mL) | 1 (≈ 1.45 µg/mL) | 1 (≈ 1.45 µg/mL) | 1 (≈ 1.45 µg/mL) | 1 (≈ 1.45 µg/mL) | > 320 | > 320 | > 320 | Active | Active | 320 | 6.24 | 1 (≈ 1.45 µg/mL) |  |
| H-KARVAVKVIRFLYKAW-NH2 |  |  |  |  |  |  |  |  |  |  |  | > 320 | > 320 | > 320 |  |  | 26.7 | 6.36 | 12 |  |
| H-KARVSVKVTASLSKAW-NH2 |  |  |  |  |  |  |  |  |  |  |  | > 320 | > 320 | > 320 |  |  | 6.67 | 7.57 | > 48 |  |
| H-KASVSVKVTASLSKAW-NH2 |  |  |  |  |  |  |  |  |  |  |  | > 320 | > 320 | > 320 |  |  | 6.67 | 7.51 | > 48 |  |
| H-KASVSVKVTASLSKAWTNSQ-NH2 |  |  |  |  |  |  |  |  |  |  |  | > 320 | > 320 | > 320 |  |  | 6.67 | 6.24 | > 48 |  |
| H-KGVIFAKASVSVKVTASLSKAWTNSQ-NH2 |  |  |  |  |  |  |  |  |  |  |  | > 320 | > 320 | > 320 |  |  | 6.67 | 5.92 | > 48 |  |
| H-LFRVVRRVVRFIRRAA-NH2 |  |  |  |  |  |  |  |  |  |  |  | > 320 | > 320 | > 320 |  |  | 26.7 | 7.53 | 12 |  |
| H-LRPLARRPIRRIRRAW-NH2 |  |  |  |  |  |  |  |  |  |  |  | > 320 | > 320 | > 320 |  |  | 6.67 | 8.74 | > 48 |  |
| H-LRRFARRLIRRIRRAW-NH2 |  |  |  |  |  |  |  |  |  |  |  | > 320 | > 320 | > 320 |  |  | 26.7 | 7.16 | 12 |  |
| H-RARVAVRVIRFLYRAW-NH2 |  |  |  |  |  |  |  |  |  |  |  | > 320 | 320 | > 320 |  |  | 26.7 | 9.34 | 12 |  |
| H-RARVRVRVRRFLRRRW-NH2 |  |  |  |  |  |  |  |  |  |  |  | > 320 | 320 | > 320 |  |  | 6.67 | 11.3 | > 48 |  |
| H-RRFFVRRVFFRRRRFF-OH |  |  |  |  |  |  |  |  |  |  |  | > 320 | 41.05 | > 320 |  |  | 6.67 | 30.1 | 48 | 59.65 |
| H-RRPLARPLIRFIRRPW-NH2 |  |  |  |  |  |  |  |  |  |  |  | > 320 | > 320 | > 320 |  |  | 6.67 | 7.57 | > 48 |  |
| H-RRRVARRVFWFVRRAV-NH2 |  |  |  |  |  |  |  |  |  |  |  | > 320 | > 320 | > 320 |  |  | 13.3 | 8.25 | 24 |  |
| H-RRRVARRVIRFIRRAW-NH2 |  |  |  |  |  |  |  |  |  |  |  | > 320 | 320 | > 320 |  |  | 26.7 | 10.2 | 12 |  |
| H-RRRWARRIIWIIRRAW-NH2 |  |  |  |  |  |  |  |  |  |  |  | > 320 | > 320 | > 320 |  |  | 13.3 | 8.66 | 24 |  |
| H-RRWIARRAIWRRRRWW-NH2 |  |  |  |  |  |  |  |  |  |  |  | > 320 | 92.35 | > 320 |  |  | 6.67 | 17.2 | 48 | 58.94 |
| H-RRWWWRRWWWRRRRWW-NH2 |  |  |  |  |  |  |  |  |  |  |  | > 320 | 25.91 | > 320 |  |  | 6.67 | 51.3 | 48 | 55.74 |
| H-WARIARRAIRAWRRWW-NH2 |  |  |  |  |  |  |  |  |  |  |  | > 320 | 75.19 | > 320 |  |  | 26.7 | 20.1 | 12 | 62.65 |
| H-WRWWRRRRWWRWRRWW-NH2 |  |  |  |  |  |  |  |  |  |  |  | > 320 | 33.2 | > 320 |  |  | 6.67 | 40.3 | 48 | 59.04 |
